According to paper PMC7600309, “Completing the Enalaprilat Excretion Pathway—Renal Handling by the Proximal Tubule” (Pharmaceutics, 2020):
pKi: −log10 of the molar value. Structures can show the parent of a compound that is named as a salt. Each block holds one compound with its values, some of them ahead of it. Non-standard residues stand in square brackets, D forms with d. Residues, ends and D or L forms follow the SMILES beside them. Sar = CNCC(=O)O

Assays:
OAT4 = biological target: T1, OAT4 (Homo sapiens, UniProt Q9NSA0)
T1 construct: gene SLC22A11

OAT3 [1] = biological target: T2, OAT3 (Homo sapiens, UniProt Q8TCC7); test: inhibition of [3H]-E1S uptake (Ki); LC-MS/MS uptake in OAT3-HEK293 cells (Km […]); assay type: cell-based
T2 construct: gene SLC22A8; NM_004254.3, baculovirus-transduced HEK293 cells
T2 sequence (Q8TCC7 1-542): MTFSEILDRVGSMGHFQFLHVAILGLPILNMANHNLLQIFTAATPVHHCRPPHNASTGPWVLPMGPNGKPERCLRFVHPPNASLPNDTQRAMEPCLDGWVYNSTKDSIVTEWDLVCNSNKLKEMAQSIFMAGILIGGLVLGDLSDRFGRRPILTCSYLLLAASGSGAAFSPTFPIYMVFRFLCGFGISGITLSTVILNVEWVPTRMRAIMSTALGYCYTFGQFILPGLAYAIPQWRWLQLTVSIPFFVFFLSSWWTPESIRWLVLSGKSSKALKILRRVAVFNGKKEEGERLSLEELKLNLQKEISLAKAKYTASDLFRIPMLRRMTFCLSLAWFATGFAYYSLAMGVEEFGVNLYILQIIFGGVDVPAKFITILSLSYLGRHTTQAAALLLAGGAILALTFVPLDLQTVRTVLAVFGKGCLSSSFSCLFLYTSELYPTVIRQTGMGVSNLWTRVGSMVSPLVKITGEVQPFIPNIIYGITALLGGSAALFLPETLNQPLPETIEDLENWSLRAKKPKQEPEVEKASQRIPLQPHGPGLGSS

URAT1 = biological target: T3, URAT1 (Homo sapiens, UniProt Q96S37); test: model substrate uptake vs control cells; assay type: cell-based
T3 construct: gene SLC22A12; NM_144585.3, baculovirus-transduced HEK293 cells
T3 sequence (Q96S37 1-553): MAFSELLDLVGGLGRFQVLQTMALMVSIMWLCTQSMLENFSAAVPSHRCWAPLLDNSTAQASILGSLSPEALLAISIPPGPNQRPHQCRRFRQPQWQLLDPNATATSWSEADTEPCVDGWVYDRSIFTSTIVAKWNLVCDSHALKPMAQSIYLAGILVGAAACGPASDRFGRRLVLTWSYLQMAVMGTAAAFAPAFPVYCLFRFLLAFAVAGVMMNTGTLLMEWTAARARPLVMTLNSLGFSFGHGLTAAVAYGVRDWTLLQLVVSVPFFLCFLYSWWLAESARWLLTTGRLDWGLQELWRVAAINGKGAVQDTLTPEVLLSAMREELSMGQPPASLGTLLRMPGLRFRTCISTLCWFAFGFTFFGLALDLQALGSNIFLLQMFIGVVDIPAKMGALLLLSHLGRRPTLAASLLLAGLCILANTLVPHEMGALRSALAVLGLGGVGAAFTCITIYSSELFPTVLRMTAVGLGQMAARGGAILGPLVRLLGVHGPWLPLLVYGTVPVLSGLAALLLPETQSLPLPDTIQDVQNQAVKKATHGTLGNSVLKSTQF

OAT3 [2] = biological target: T2, OAT3; test: radiolabelled model substrate uptake ([…]); assay type: cell-based
OCTN2 = biological target: T4, OCTN2 (Homo sapiens, UniProt O76082); test: radiolabelled model substrate uptake vs control cells; assay type: cell-based
T4 construct: gene SLC22A5; NM_003060.3, baculovirus-transduced HEK293 cells
T4 sequence (O76082 1-557): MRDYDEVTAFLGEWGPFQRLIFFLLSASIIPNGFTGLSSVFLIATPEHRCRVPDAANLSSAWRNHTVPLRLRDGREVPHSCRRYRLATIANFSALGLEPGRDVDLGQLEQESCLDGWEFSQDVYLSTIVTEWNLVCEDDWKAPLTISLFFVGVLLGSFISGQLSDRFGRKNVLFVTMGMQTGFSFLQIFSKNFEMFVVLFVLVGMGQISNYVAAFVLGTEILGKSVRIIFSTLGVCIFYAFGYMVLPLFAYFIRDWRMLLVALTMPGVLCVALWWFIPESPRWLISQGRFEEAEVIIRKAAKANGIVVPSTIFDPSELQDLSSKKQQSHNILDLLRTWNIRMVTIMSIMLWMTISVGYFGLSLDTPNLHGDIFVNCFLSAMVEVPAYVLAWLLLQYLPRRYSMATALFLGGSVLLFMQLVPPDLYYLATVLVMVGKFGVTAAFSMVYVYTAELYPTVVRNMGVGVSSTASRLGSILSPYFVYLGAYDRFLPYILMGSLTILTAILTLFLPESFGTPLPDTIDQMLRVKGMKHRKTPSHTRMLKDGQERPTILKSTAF

OCTN1 = biological target: T5, OCTN1 (Homo sapiens, UniProt Q9H015); test: as above; assay type: cell-based
T5 construct: gene SLC22A4; NM_003059.2, baculovirus-transduced HEK293 cells
T5 sequence (Q9H015 1-551): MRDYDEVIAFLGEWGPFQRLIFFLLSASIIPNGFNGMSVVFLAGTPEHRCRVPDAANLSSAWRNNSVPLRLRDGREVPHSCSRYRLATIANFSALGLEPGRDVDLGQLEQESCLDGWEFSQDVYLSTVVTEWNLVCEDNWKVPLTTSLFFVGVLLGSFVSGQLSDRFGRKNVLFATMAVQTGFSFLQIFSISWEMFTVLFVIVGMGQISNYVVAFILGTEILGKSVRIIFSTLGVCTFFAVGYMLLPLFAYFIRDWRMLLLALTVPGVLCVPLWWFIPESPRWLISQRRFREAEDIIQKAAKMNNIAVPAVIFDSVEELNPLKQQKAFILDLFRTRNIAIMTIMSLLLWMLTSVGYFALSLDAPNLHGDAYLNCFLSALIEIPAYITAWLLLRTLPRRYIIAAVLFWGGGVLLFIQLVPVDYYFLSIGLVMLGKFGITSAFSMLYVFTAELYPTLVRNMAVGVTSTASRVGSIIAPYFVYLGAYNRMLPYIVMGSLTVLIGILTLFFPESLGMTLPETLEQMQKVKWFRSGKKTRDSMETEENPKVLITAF

PEPT1 = biological target: T6, PEPT1 (Homo sapiens, UniProt P46059); test: as above; assay type: cell-based
T6 construct: gene SLC15A1; NM_005073.3, baculovirus-transduced HEK293 cells
T6 sequence (P46059 1-708): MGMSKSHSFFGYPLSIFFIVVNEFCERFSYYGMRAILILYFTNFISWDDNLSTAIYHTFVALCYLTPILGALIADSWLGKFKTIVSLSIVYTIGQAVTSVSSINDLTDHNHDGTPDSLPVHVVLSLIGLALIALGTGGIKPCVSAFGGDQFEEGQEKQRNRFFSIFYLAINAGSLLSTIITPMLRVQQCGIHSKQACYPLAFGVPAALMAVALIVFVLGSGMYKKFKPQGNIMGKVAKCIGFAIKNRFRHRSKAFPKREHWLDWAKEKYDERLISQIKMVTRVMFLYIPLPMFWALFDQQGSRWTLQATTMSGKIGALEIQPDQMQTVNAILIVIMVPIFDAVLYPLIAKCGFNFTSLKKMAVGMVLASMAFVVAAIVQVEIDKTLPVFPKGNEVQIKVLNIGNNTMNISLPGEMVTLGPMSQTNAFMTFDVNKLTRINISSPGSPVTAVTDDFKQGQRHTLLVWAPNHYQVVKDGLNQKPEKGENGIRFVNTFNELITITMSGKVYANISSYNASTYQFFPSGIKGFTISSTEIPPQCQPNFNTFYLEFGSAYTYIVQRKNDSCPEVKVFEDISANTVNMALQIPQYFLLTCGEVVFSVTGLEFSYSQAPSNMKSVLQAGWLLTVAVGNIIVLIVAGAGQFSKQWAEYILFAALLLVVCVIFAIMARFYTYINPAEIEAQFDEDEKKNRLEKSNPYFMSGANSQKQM

PEPT2 = biological target: T7, PEPT2 (Homo sapiens, UniProt Q16348); test: as above; assay type: cell-based
T7 construct: gene SLC15A2; NM_021082.3, baculovirus-transduced HEK293 cells
T7 sequence (Q16348 1-729): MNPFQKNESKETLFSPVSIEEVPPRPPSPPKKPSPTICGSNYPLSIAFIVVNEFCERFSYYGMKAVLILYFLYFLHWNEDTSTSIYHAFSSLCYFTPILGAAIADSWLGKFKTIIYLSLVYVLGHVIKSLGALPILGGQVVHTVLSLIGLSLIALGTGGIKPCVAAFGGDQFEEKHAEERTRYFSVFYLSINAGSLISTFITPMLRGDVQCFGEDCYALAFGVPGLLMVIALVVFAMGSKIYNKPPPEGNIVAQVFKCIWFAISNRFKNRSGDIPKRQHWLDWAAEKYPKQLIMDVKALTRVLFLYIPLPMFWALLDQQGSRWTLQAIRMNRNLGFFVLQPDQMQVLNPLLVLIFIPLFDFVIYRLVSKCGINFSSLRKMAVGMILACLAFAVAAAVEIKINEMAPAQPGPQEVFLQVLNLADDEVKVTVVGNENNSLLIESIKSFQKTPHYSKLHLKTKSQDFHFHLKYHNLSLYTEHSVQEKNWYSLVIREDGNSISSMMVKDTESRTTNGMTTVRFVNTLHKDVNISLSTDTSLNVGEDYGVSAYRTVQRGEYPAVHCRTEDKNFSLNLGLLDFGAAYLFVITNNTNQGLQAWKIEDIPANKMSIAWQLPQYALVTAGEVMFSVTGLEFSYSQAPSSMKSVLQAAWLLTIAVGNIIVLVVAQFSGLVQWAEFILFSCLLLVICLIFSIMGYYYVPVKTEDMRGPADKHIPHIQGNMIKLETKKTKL

OAT2 = biological target: T8, OAT2 (Homo sapiens, UniProt Q9Y694); test: as above; assay type: cell-based
T8 construct: gene SLC22A7; NM_006672, baculovirus-transduced HEK293 cells
T8 sequence (Q9Y694 1-548): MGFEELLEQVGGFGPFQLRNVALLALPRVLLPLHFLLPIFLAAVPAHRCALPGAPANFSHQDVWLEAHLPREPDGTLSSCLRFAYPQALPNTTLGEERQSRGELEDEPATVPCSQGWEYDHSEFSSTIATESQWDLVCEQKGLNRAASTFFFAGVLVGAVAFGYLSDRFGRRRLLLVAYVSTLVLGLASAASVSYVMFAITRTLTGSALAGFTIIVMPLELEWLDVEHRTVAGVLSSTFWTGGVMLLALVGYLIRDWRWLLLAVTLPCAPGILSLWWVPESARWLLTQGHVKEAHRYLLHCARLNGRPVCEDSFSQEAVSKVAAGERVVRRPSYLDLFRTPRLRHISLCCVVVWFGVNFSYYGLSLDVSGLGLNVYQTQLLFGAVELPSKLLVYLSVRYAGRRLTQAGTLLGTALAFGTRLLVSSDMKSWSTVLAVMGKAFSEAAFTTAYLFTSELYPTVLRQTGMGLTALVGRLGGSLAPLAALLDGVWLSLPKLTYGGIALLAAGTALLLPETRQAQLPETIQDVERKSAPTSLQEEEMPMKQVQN

T1 sequence (Q9NSA0 whole entry): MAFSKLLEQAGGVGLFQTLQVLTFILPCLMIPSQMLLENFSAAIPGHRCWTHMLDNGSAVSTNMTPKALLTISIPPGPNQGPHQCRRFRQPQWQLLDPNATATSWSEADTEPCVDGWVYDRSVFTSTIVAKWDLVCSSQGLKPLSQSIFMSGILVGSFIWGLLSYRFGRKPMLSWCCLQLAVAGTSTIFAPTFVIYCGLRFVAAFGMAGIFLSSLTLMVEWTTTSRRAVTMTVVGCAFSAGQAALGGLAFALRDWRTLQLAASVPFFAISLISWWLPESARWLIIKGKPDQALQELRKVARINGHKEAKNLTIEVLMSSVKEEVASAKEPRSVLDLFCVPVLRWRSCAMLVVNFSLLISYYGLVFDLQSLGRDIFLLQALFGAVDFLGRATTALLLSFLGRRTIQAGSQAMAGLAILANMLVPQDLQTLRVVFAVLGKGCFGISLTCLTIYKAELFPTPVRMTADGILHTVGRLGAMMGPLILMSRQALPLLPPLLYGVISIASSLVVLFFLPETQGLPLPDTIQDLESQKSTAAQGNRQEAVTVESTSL

Km (OAT4): > 1000 µM
pKi (OAT3 [1]): 3.87
SMILES: C[C@H](N[C@@H](CCc1ccccc1)C(=O)O)C(=O)N1CCC[C@H]1C(=O)O [enalaprilat]

SMILES: O=c1[nH]c(=O)c2[nH]c(=O)[nH]c2[nH]1 [Urate]
model substrate uptake vs control cells (URAT1): OAT2, OAT4, PEPT1, PEPT2, URAT1, OCTN1, and OCTN2 all showed a significant transport ratio compared to control cells

SMILES: C[C@]12CC[C@@H]3c4ccc(OS(=O)(=O)O)cc4CC[C@H]3[C@@H]1CCC2=O [[^3H]-Estrone sulfate]
radiolabelled model substrate uptake (20 nM) (OAT3 [2]): Transport of [^3H]-E1S by OAT3 was determined in the presence of increasing enalaprilat concentrations

SMILES: C[N+](C)(C)C[C@H](O)CC(=O)[O-] [[^14C]-Carnitine]
radiolabelled model substrate uptake vs control cells (OCTN2): OAT2, OAT4, PEPT1, PEPT2, URAT1, OCTN1, and OCTN2 all showed a significant transport ratio compared to control cells
radiolabelled model substrate uptake vs control cells (OCTN1): OAT2, OAT4, PEPT1, PEPT2, URAT1, OCTN1, and OCTN2 all showed a significant transport ratio compared to control cells

SMILES: CN(CC(=O)O)C(=O)CN [[^3H]-Glycyl-sarcosine] (H-Gly-[Sar]-OH)
radiolabelled model substrate uptake vs control cells (PEPT1): OAT2, OAT4, PEPT1, PEPT2, URAT1, OCTN1, and OCTN2 all showed a significant transport ratio compared to control cells
radiolabelled model substrate uptake vs control cells (PEPT2): OAT2, OAT4, PEPT1, PEPT2, URAT1, OCTN1, and OCTN2 all showed a significant transport ratio compared to control cells

SMILES: Nc1ccc(C(=O)NCC(=O)O)cc1 [[^14C]-para-aminohippuric acid]
radiolabelled model substrate uptake vs control cells (OAT2): OAT2, OAT4, PEPT1, PEPT2, URAT1, OCTN1, and OCTN2 all showed a significant transport ratio compared to control cells
